Experimental data taken from patent publication US9199928B2, “Fluorescent dye for pH sensor” (SARTORIUS STEDIM BIOTECH GMBH, priority 2011, dated 2015).

melting point: 210 to 212 °C (dec.)
Compound: NC(CCCCNS(=O)(=O)c1cc(S(=O)(=O)NCCCCC(N)C(=O)O)c2ccc3c(O)cc(O)c4ccc1c2c43)C(=O)O (stereo not shown)
